From US20230137943A1, “PHOTOPROXIMITY PROFILING OF PROTEIN-PROTEIN INTERACTIONS IN CELLS” (The University of Chicago, priority 2019, published 2023)

Biological target: T1, KEAP1-SNAP protein (Homo sapiens, UniProt P16455+Q14145, A127T/A154D/C150Q/C62A/E30R/G131K/G132T/G153L/K125A/K32I/L33F/M134L/N157G/Q115S/Q116H/R128A/R135S/S151G/S152D/S159E)
T1 construct: expressed in transfected cells; host or cells: HEK293T, lentiviral transduction with pDC-006, blasticidin selection
Test: Probe dose response: labeling of KEAP1-SNAP fusion in live cells (Western blot)
Format: cell-based
Procedure: PP1 close response and viability assay: Dose response—Each well of a 6-well plate was seeded with 300,000 HEK293T cells stably expressing either SNAP-FLAG or KEAP-SNAP. After reaching ˜90% confluency the growth media was removed, cells washed with DPBS, and treated with varying concentrations (0, 0.5, 1, 5, 15, 45 μM) of photoproximity probe PP1 in 500 μL serum-free DMEM for 2 hours at 37° C. Post treatment, media was aspirated and non-reacted probe washed out with 3 mL full DMEM over 40 minutes, changing the media twice. Cells were harvested, washed, and lysed in DPBS containing protease inhibitor using a tip sonicator. Lysate was normalized to 1 mg/mL then diluted with loading buffer and run on SDS-PAGE gel that was transferred by western blot to nitrocellulose. The nitrocellulose membrane was stained for biotin and Flag-Tag using streptavidin IR dye (Li-cor #926-32230; Li-cor Biosciences, Lincoln, Nebr., United States of America) and anti-Flag (Sigma #F3165, Sigma-Aldrich, St. Louis, Mo., United States of America; Li-cor #926-68072, Li-cor Biosciences, Lincoln, Nebr., United States of America). Fluorescence images were collected using an Odyssey infrared imager (Li-cor Biosciences, Lincoln, Nebr., United States of America).
Both C- and N-terminal SNAP-Tag fusions of full-length, human KEAP1, in each case separated by a short linker were cloned. […] Both C- and N-terminal SNAP fusions were functional, as indicated by dose-dependent labeling with PP1 in live cells. […] Finally, it was expected that identification of probe-labeled binding partners, and therefore proteins proximal to KEAP1 in cells, would be improved by quantitative proteomic differentiation of enriched vs. background proteins. Therefore, SILAC-labeled cultures expressing both N-terminal (referred to as SNAP-KEAP1) and C-terminal (referred to as KEAP1-SNAP) fusion proteins with light and heavy arginine and lysine were prepared. Matched cultures of heavy and light cells, each expressing the same SNAP-KEAP1 or KEAP1-SNAP construct, were then treated with PP1 probe or vehicle for 2 hr. […]

T1 sequence (Q14145+P16455 fused with the stated changes): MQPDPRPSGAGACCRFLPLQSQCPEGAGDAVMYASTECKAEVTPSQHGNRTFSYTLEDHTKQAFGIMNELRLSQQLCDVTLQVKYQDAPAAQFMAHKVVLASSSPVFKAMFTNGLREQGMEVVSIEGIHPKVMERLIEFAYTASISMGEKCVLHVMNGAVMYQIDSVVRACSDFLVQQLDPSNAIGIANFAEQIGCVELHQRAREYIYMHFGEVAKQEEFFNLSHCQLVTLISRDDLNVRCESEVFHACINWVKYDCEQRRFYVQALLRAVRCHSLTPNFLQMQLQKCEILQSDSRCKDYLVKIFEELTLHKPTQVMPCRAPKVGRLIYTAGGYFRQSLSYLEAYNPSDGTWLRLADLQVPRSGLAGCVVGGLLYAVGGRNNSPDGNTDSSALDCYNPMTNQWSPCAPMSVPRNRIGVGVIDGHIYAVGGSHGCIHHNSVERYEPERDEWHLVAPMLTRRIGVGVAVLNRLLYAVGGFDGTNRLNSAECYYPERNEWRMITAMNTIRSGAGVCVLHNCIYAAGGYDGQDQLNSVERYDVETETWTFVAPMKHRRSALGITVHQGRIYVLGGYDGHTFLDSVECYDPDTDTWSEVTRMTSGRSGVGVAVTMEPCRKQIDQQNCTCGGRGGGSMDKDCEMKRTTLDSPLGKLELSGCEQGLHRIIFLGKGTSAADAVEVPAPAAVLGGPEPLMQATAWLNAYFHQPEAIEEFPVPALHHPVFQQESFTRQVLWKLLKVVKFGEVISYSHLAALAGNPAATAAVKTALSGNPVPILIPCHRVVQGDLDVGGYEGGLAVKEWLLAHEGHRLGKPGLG

Structure (SMILES) | Concentration at which protein is labeled (AC1 0-50 μM, 1 or 2 hours, live HEK293T cells) | Cell permeability (AC1, biotin-labeling of SNAP-FLAG-KEAP1 in live HEK293T cells) | EC50 of KEAP1-SNAP fusion labeling (PP1, live HEK293T cells, 2 hr, not irradiated)
COc1cc(COC(=O)NC(CCCCNC(=O)CCC2(C)N=N2)C(=O)NCCCCC2SCC3NC(=O)NC32)c([N+](=O)[O-])cc1OCCCC(=O)NCc1ccc(COc2nc(N)nc3[nH]cnc23)cc1 (stereo not drawn) [AC1] | low micromolar concentrations | cell permeable | 
COc1cc(C(C)OC(=O)NC(CCCCNC(=O)CCC2(C)N=N2)C(=O)NCCCCCNC(=O)CCCCC2SCC3NC(=O)NC32)c([N+](=O)[O-])cc1OCCCC(=O)NCc1ccc(COc2nc(N)nc3[nH]cnc23)cc1 (stereo not drawn) [PP1] |  |  | low micromolar
